Reference: ChEMBL document CHEMBL2331101, “Aldosterone synthase inhibitors” (ACS Med Chem Lett, 2013)

How the values were obtained:
Format in all cases: cell-based
[1] = biological target: T1, Cytochrome P450 11B2, mitochondrial (Homo sapiens, UniProt P19099); experiment: Inhibition of human Cyp11B2 transfected in chinese hamster V79MZ cells using deoxycorticosterone as substrate incubated for 60 mins prior to substrate addition measured after 50 mins by HPLC analysis
T1 sequence (P19099 whole entry): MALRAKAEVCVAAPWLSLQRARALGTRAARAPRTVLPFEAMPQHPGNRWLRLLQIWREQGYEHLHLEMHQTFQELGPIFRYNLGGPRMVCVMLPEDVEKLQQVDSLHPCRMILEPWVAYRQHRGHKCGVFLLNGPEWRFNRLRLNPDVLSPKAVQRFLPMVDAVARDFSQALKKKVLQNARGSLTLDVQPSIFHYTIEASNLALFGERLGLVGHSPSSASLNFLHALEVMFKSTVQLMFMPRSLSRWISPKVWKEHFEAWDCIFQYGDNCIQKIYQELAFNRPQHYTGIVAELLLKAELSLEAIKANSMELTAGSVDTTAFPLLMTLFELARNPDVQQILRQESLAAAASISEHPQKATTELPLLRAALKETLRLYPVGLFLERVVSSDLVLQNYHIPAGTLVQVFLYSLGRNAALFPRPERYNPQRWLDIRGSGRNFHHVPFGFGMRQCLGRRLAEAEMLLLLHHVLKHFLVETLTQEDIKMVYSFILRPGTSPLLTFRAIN

[2] = biological target: T2, Cytochrome P450 11B1, mitochondrial (Homo sapiens, UniProt P15538); experiment: (§1) Inhibition of human Cyp11B1 transfected in chinese hamster V79MZ cells using deoxycorticosterone as substrate incubated for 60 mins prior to substrate addition measured after 25 mins by HPLC analysis
T2 sequence (P15538 whole entry): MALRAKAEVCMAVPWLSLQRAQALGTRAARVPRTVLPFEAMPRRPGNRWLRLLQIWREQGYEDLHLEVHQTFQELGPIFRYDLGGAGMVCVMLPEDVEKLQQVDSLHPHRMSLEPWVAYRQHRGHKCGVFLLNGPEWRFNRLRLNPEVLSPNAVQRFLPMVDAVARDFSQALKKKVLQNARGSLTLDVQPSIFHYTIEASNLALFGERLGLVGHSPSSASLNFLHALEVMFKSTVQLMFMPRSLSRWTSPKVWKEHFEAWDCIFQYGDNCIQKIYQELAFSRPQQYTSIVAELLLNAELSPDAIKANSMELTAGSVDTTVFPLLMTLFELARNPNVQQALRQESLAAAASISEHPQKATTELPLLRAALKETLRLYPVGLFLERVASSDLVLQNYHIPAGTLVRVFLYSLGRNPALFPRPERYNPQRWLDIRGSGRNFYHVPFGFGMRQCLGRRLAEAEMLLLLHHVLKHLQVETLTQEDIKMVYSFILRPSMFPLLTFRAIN

[3] = biological target: T3, CYP11B1 (Homo sapiens, UniProt P15538); experiment: as §1; details: human, Chinese hamster V79MZ cells transfected with human CYP11B1, probe deoxycorticosterone
T3 sequence (P15538 whole entry): T2 sequence (P15538 whole entry)

| IC50 [1] [nM] | IC50 [2] [nM] | IC50 at 25 min [3] [nM] | SMILES |
| --- | --- | --- | --- |
| 5 | 407 |  | Cc1nnc2n1-c1ccc(-c3cncc4ccccc34)cc1CC2 |
|  |  | > 30000 | Cc1nnc2n1-c1c(Cl)cc(-c3cnccc3C(F)(F)F)cc1CC2 |
|  |  | > 10000 | Cc1nnc2n1-c1cc(Cl)c(-c3cncc4ccccc34)cc1CC2 |

The next lines start with the compound.

| SMILES | IC50 [1] [nM] | IC50 [2] [nM] | IC50 at 25 min [3] [nM] |
| --- | --- | --- | --- |
| COC(C)(C)c1cncc(-c2ccc3c(c2)CCc2nnc(C)n2-3)c1 | 5 | 108 |  |
| COc1c(C)cncc1-c1cc2c(cc1F)-n1c(C)nnc1CC2 |  |  | > 10000 |
